Data published in patent US20200038513A1, “MODULATORS OF FAK PROTEOLYSIS AND ASSOCIATED METHODS OF USE” (ARVINAS OPERATIONS, INC., priority 2018, published 2020).

Key:
[1] = Pharmacokinetics of intraperitoneal or intravenous injection in CD1 mice; assay type: in vivo
Experimental: The pharmacokinetics of exemplary compounds 103, 107, 100, 101, and 102 was examined for intraperitoneal and intravenous administration. The desired serial concentrations of working solutions were achieved by diluting stock solution (1 mg/mL in DMSO) of analyte with methanol. In particular, 20 μL of working solutions (1, 2, 5, 10, 50, 100, 500, 1000, 2000 ng/mL) were added to 20 μL of the blank CD1 mice plasma to achieve calibration standards of 1-2000 ng/mL (1, 2, 5, 10, 50, 100, 500, 1000, 2000 ng/mL) in a total volume of 40 μL. Dose of IV and IP were diluted by 1000 fold and 10000 with methanol, 20 μL of the diluted dose solutions were added to 20 μL of the blank CD1 mice plasma to achieve dose samples. Next, 40 μL standards and 40 μL dose samples were added to 20 μL of IS (100 ng/mL) and 200 μL of acetonitrile for precipitating protein respectively. Then the samples were vortexed for 30 seconds. After centrifugation at 4 degree Celsius, 4000 rpm for 15 minutes, the supernatant was diluted 3 times with water. 10 μL of the diluted supernatant was injected into the LC/MS/MS system for quantitative analysis.
Exemplary compounds 103, 107, 100, 101, and 102 were administered intravenously (5 second injection of 10% HP-b-CD and 40 mM sodium acetate and 40 mM NaCl in water, pH4.5) or intraperitoneally (5% EtOH and 5% Solutol HS15 in D5W(ESD-2)) to 6-8 week old male CD1 mice (3 mice per treatment group for a total of 12 mice) at the time points indicated below in Table 7. The mice had free access to food and water.
Dorsal metatarsal vein samples (30 μL), except that the final sample was acquired via a heart puncture, were taken from the mice at the same the administration time points as shown in Table 7.

[2] = target: T1, Fak (Homo sapiens, UniProt Q05397); test: Fak degradation, immunoblotting in PC3 cells; assay type: cell-based; conditions: PC3 cells, 24 hour treatment; for Dmax: PC-3, degradation maximum, n = 3
Experimental: PC3 cells were cultured in F12-K (Kaighn's Modification of Ham's F-12 Medium), supplemented with 10% fetal bovine serum (FBS) and 1% penicillin-streptomycin at 37° C. and 5% CO2.
If not indicated otherwise, cells were seeded and grown to 80% confluency and were treated with compound or control for 24 hours. […] After 20 minutes the mixture was spun down at 16,000×g for 10 minutes at 4° C. to pellet insoluble materials. Protein concentration of supernatants were determined via BCA assay (Thermo Fisher) before addition of NuPAGE sample buffer containing 5% β-Me and boiling at 95° C. for 10 minutes. Equal amounts of protein were subjected to SDS-PAGE and subsequent electrophoretic transfer onto nitrocellulose membrane. […] Immunoblots were developed using enhanced chemiluminescence and visualized using a Bio-Rad Chemi-Doc MP Imaging System and quantitated with Image Lab v.5.2.1 software (Bio-Rad Laboratories). Data analysis and statistics was performed using Prism 7.0 (GraphPad).
Examination of Target Protein (Fak) Degradation.

[3] = target: T1, Fak; test: Kinase activity assay (Reaction Biology Corp.); assay type: biochemical; design: purchased Reaction Biology Corp. (contract assay service); conditions: 10 μM ATP, n = 2
Experimental: Reactions were carried out at 10 μM ATP. IC50 values were calculated using Prism 7.0 (GraphPad).

T1 sequence (Q05397 whole entry): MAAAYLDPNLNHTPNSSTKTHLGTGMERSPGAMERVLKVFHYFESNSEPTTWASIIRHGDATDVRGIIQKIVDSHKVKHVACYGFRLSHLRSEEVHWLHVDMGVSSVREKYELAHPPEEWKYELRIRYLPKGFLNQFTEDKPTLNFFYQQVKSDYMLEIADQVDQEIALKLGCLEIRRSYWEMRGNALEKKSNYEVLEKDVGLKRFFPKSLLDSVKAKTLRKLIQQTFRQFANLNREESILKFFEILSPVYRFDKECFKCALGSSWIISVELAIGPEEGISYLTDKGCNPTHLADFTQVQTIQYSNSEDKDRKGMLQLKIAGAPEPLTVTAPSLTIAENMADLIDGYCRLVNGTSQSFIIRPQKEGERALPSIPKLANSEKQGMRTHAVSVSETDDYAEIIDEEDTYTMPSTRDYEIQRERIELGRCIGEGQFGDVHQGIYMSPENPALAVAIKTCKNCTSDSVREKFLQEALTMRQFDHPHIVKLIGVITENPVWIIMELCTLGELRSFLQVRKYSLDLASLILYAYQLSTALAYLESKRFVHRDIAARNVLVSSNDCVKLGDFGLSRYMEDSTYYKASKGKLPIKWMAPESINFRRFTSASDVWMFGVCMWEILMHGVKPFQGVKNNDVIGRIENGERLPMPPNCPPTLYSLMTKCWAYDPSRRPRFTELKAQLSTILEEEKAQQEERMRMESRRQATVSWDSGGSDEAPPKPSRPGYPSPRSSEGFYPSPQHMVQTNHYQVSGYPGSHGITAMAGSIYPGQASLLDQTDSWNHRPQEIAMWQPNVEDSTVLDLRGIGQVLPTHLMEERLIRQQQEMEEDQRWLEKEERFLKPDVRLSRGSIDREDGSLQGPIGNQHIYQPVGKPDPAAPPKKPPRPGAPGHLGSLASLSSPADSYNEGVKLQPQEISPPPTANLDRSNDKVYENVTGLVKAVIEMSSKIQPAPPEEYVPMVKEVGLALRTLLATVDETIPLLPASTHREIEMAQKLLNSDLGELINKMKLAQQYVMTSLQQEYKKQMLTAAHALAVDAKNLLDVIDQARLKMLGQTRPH

Fak degradation / effect on Fak levels (in words) [2]	Dmax [2]	IC50 [3]	DC50 ([2]; half-maximal degradation concentration)	Compound	AUClast (h * ng/mL) IP ([1]; IP)	T ½ (h) IP ([1]; IP)	AUClast (h * ng/mL) IV ([1]; IV)	T ½ (h) IV ([1]; IV)
–	–	–	–	N-(2-((2-(2,6-dioxopiperidin-3-yl)-1,3-dioxoisoindolin-4-yl)oxy)ethyl)-3-(3-(4-((4-((3-(N-methylmethylsulfonamido)benzyl)amino)-5-(trifluoromethyl)pyrimidin-2-yl)amino)phenoxy)propoxy)propanamide [Compound 108]	208 ng·h/mL	1.10 h	3.80 ng·h/mL	0.058 h
no Fak degradation	0%	0.0112 µM	–	Cc1ncsc1-c1ccc(CNC(=O)[C@@H]2C[C@H](O)CN2C(=O)[C@@H](NC(=O)CCOCCOc2ccc(Nc3ncc(C(F)(F)F)c(NCc4cccc(N(C)S(C)(=O)=O)c4)n3)cc2)C(C)(C)C)cc1 [Compound 106, (2S,4S)-1-((S)-3,3-dimethyl-2-(3-(2-(4-((4-((3-(N-methylmethylsulfonamido)benzyl)amino)-5-(trifluoromethyl)pyrimidin-2-yl)amino)phenoxy)ethoxy)propanamido)butanoyl)-4-hydroxy-N-(4-(4-methylthiazol-5-yl)benzyl)pyrrolidine-2-carboxamide]	–	–	–	–
–	91%	0.0061 ± 0.0001 µM	0.0481 µM	Cc1ncsc1-c1ccc(CNC(=O)[C@@H]2C[C@@H](O)CN2C(=O)[C@@H](NC(=O)CCOCCOCCOCCOCCOc2ccc(Nc3ncc(C(F)(F)F)c(NCc4cccc(N(C)S(C)(=O)=O)c4)n3)cc2)C(C)(C)C)cc1 [Compound 105, (2S,4R)-1-((S)-17-(tert-butyl)-1-(4-((4-((3-(N-methylmethylsulfonamido)benzyl)amino)-5-(trifluoromethyl)pyrimidin-2-yl)amino)phenoxy)-15-oxo-3,6,9,12-tetraoxa-16-azaoctadecan-18-oyl)-4-hydroxy-N-(4-(4-methylthiazol-5-yl)benzyl)pyrrolidine-2-carboxamide]	–	–	–	–
